# Measured values from patent US9018248B2, “Fatty acid derivatives of catechins and methods of their use” (Genesis Group Inc., priority 2010, dated 2015).
# Marks after values point to notes of the source that are not given here.
# What was measured:
# [1] = Oil/water emulsion (β-carotene/linoleate) bleaching; settings: test compounds 1 mM in ethanol, 50° C., 105 min
# Method: Ten milligrams of β-carotene were dissolved in 10 ml of chloroform. A 1.2 ml portion of this solution was transferred into a round-bottom flask containing 40 mg of linoleic acid and 400 mg of Tween 40. A blank without β-carotene was also prepared (40 mg of linoleic acid+400 mg of Tween 40). After removal of chloroform under a nitrogen stream, 100 ml of oxygenated distilled water were added to the flask and the mixture was stirred vigorously. Aliquots (4.5 ml) of the above emulsion were transferred into a series of tubes containing 0.5 ml of test compounds (1 mM in ethanol) or ethanol as control. A mixture of blank (without β-carotene) was prepared for each sample. The tubes were vortexed and the zero time absorbance was read immediately at 470 nm. The tubes are kept in a water bath at 50° C. with gentle shaking, and measurement of absorbance was continued over a 105-min period at intervals of 15 min. Blank-corrected absorbance was obtained and plotted against time for kinetic curve of β-carotene bleaching. Antioxidant activity (AA) of test compounds in protecting β-carotene/linoleic acid oxidation was calculated using the following equation. AA %=[1−(A0−At)/(A0^o−At^o)]×100 where, A0 and At are corrected absorbance values for test samples measured at zero time and after incubation, respectively; while A0^o and At^o are corrected absorbance values for control at zero time and after incubation, respectively.
# [2] = Bulk oil system, stripped corn oil, Rancimat; settings: PF=IPsample/IPcontrol; Rancimat 100° C., 1 μmol in 3 g oil
# Method: One milliliter of EGCG and its derivatives dissolved in ethanol (1 μmol/ml) was transferred into a reaction vessel, followed by evaporation of the solvent to dryness under a stream of nitrogen. To each vessel (an empty vessel was used as control) 3 g of stripped corn oil (devoid of endogenous antioxidants) were added. The evaluation was carried out under accelerated oxidation in a Rancimat (Metrohm Model 743, Herisau, Switzerland) conditions at 100° C. with an air flow rate of 20 l/h. Lipid oxidation in the absence and presence of test compounds was monitored by changes in electrical conductivity, arising from the formation of volatile oxidation products. The induction periods (IP, time to reach a sudden increase in oxidation rate) were recorded. […] Antioxidant activity was interpreted as protection factor (PF), which was calculated as follow. PF=IPsample/IPcontrol where, IPsample and IPcontrol represent induction periods for the oil with and without test compounds, respectively. Discussion
# Human LDL = assay: Inhibition of copper-induced LDL-cholesterol oxidation; settings: CuSO4-induced, 37° C., 22 hours
# Method: Human LDL solution was dialyzed overnight in PBS (10 mM, 0.15M NaCl, pH 7.4) at 4° C. under nitrogen blanket prior to the test. Sample solutions were prepared by dissolving the test compounds in ethanol at concentration of 500 μM. Ten microliters of sample solutions were transferred into a set of Eppendorf tubes, and the solvent was evaporated to dryness under a nitrogen stream. To each tube 0.1 ml of PBS was added, followed by vortexing for 1 min. An aliquot (0.8 ml) of the dialyzed and diluted LDL solution (0.125 mg/ml) was added to each tube, and the contents were mixed well and incubated at 37° C. for 15 min. The reaction was initiated by adding 0.1 ml of CuSO4 (20 μM, previously incubated). A blank containing only sample without LDL or CuSO4 was prepared for each test compound. After incubation of the reaction mixture at 37° C. for 22 hours, the conjugated dienes formed as a result of oxidation were measured spectrophotometrically at 234 nm. […] All absorbances for samples were blank-corrected. Discussion
Structure (SMILES),Inhibition of β-carotene bleaching [1],Protection Factor (PF) [2],Inhibition of LDL-cholesterol oxidation (conjugated diene formation) (Human LDL)
"CCCCCCCCCCCCCCCCCC(=O)Oc1cc(C(=O)OC2Cc3c(O)cc(O)cc3OC2c2cc(OC(=O)CCCCCCCCCCCCCCCCC)c(O)c(OC(=O)CCCCCCCCCCCCCCCCC)c2)cc(OC(=O)CCCCCCCCCCCCCCCCC)c1O (stereo not drawn) [Compound 1a, EGCG stearate]",16.8 ± 4.19^b %,2.38,16.33%
CCC=CCC=CCC=CCC=CCC=CCCCC(=O)Oc1cc(C(=O)OC2Cc3c(O)cc(O)cc3OC2c2cc(OC(=O)CCCC=CCC=CCC=CCC=CCC=CCC)c(O)c(OC(=O)CCCC=CCC=CCC=CCC=CCC=CCC)c2)cc(OC(=O)CCCC=CCC=CCC=CCC=CCC=CCC)c1O (stereo not drawn) [Compound 1b],28.0 ± 0.17^a %,0.82,11.80%
CCC=CCC=CCC=CCC=CCC=CCC=CCCC(=O)Oc1cc(C(=O)OC2Cc3c(O)cc(O)cc3OC2c2cc(OC(=O)CCC=CCC=CCC=CCC=CCC=CCC=CCC)c(O)c(OC(=O)CCC=CCC=CCC=CCC=CCC=CCC=CCC)c2)cc(OC(=O)CCC=CCC=CCC=CCC=CCC=CCC=CCC)c1O (stereo not drawn) [Compound 1c],32.1 ± 4.48^a %,0.77,8.18%
"O=C(O[C@@H]1Cc2c(O)cc(O)cc2O[C@@H]1c1cc(O)c(O)c(O)c1)c1cc(O)c(O)c(O)c1 [EGCG, Epigallocatechin gallate, reference compound]",7.90 ± 0.64^c %,1.40,6.53%
